Experimental data published in article PMC8355244, “A fragment-based approach identifies an allosteric pocket that impacts malate dehydrogenase activity” (Communications Biology, 2021).
“And” between values parts separate entries of the source, which are not always exact repeats. Equal values may be shown once. Read-outs that look alike come from different tables or passages of the source.

What was measured:
[1] = molecular target: T1, WT PfMDH (Plasmodium falciparum, UniProt Q6VVP7); assay: Activity screening of 4DT / 4-phenylthiazol-2-amine derivatives (oxidation of malate, absorbance at 340 nm); type: biochemical
T1 construct: The full-length WT PfMDH gene was cloned into pETM-13; made in house; host or cells: E. coli Rosetta 2 (DE3) pLysS
Experimental: The oxidation of malate to oxaloacetate was assayed spectrophotometrically in flat-bottomed Corning 96-well microplates in a total volume of 250.0 µl in 50 mM glycine buffer pH 10.2[24] with an additional 400 mM NaCl for protein stability. The increase of absorbance at 340 nm was recorded in kinetic mode using a Tecan Spark multimode microplate reader at 298 K. A mastermix of 50 mM NAD+ and 44 μM PfMDH was used for both the screening and kinetics experiments. The final concentration of protein and cofactor were […], respectively. Positive control groups were set (absence of compound) in the same plate as the treated group. The absorbance from the background noise was subtracted from the data and then a linear regression model was employed in order to get the line slope from the first 5 min of the reaction. The percentage of enzymatic activity has been calculated as described by Eq. (1)1 enzymeactivity(%)=slopetreated/slopepositivecontrol*100
1.3 µL of derivatives of 4-phenylthiazol-2-amine in 100% DMSO were mixed with 237.7 µL of a mastermix of WT PfMDH previously incubated with NAD+. The final compound concentration used in this screening was 500 µM in the presence of 0.5% (v/v) DMSO. The microplate was sealed with silver foil for 1-h incubation at 25–35 °C. Finally, reactions in both the samples and control wells were started upon the addition of 13.0 µL of 5 mM malate). At the end of the experiments, the reaction of the plate was spectrophotometrically assayed at 600 nm in order to identify turbidity due to the low solubility of the compound. All measurements were performed in duplicate.

[2] = molecular target: T2, PfMDH (Plasmodium falciparum, UniProt Q6VVP7); assay: Thermal shift assay (TSA); type: binding; conditions: for TSA melting curve raw signal: triplicate columns
T2 construct: The full-length WT PfMDH gene was cloned into pETM-13; made in house; host or cells: E. coli Rosetta 2 (DE3) pLysS
Experimental: The TSA experiment was conducted in a BioRad CSX 96 (Biorad). Each reaction consisted of 1 mM of compound (100 mM stock in 100% (v/v) DMSO) and 10 μM PfMDH in 100 mM Na–phosphate buffer pH 7.4, 400 mM NaCl, and 10× Sypro Orange (Invitrogen) for a total volume of 100 μl. Control experiments were performed with 1% (v/v) DMSO. Inflection points were determined using BioRad CFX96™ control software. Generally, a temperature increase of over 1 °C is interpreted as a result of the stabilization of the protein-ligand interaction. On the contrary, a negative shift is considered a destabilization caused by the fragment.

T2 sequence (Q6VVP7 entry or part of it): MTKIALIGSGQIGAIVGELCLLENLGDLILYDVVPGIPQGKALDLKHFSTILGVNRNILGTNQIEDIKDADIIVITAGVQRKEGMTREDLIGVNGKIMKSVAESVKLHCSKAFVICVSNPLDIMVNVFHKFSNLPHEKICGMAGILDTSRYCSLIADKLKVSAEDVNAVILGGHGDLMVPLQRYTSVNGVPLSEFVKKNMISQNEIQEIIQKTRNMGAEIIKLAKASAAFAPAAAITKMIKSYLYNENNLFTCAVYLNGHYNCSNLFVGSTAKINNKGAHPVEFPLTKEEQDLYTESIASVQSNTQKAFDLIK
T1 sequence (Q6VVP7 entry or part of it): as above

SMILES: Cc1ccc(-c2csc(N)n2)cc1C [compound 5a]
- remaining activity at 500 µM ([1]; 500 µM compound, Dunnett test details, positive control mean 100, n 2, read-out: Mean 2 (mean % enzymatic activity of treated group)): 52%
- inhibition at 500 µM ([1]; 500 µM compound, Dunnett's multiple comparisons test, read-out: Mean Diff. (positive control vs. compound)): 48.5%
- remaining activity at 500 µM ([1]; 500 µM compound, control 100%, replicate 1, read-out: % enzymatic activity repl1): 56%
- remaining activity at 500 µM ([1]; 500 µM compound, control 100%, replicate 2, read-out: % enzymatic activity repl2): 47%
- Slope repl1 ([1]; 500 µM compound, linear regression slope of absorbance 340 nm vs time, replicate 1): 0.01855
- Slope repl2 ([1]; 500 µM compound, linear regression slope of absorbance 340 nm vs time, replicate 2): 0.01659
- Slope normalized repl1 ([1]; 500 µM compound, slope relative to control = 1, replicate 1): 0.5569
- Slope normalized repl2 ([1]; 500 µM compound, slope relative to control = 1, replicate 2): 0.4735
- remaining activity at 500 µM ([1]; read-out: enzyme activity): 52%
- ΔTm at 1000 µM ([2]; 1 mM compound vs DMSO control): -4 °C
- Tm ([2]; 1 mM compound, 10 μM PfMDH, DMSO control Tm 58): 54.0 ± 0.2 °C
- TSA melting curve raw signal ([2]; Temperature 25): 4361,22691625664 and 4136,47480077282
- TSA melting curve raw signal ([2]; Temperature 28.5): 4004,87351225735 and 4183,98281996697 and 3977,18518163549
- TSA melting curve raw signal ([2]; Temperature 29): 3986,17580138025 and 4159,213140841 and 3954,9246822172
- TSA melting curve raw signal ([2]; Temperature 29.5): 3965,52273011401 and 4133,77316232738 and 3931,4868089647
- TSA melting curve raw signal ([2]; Temperature 30): 3942,69196918976 and 4107,074098257 and 3906,46894255822
- TSA melting curve raw signal ([2]; Temperature 30.5): 3918,20361111847 and 4079,7505229192 and 3880,66961233132
- TSA melting curve raw signal ([2]; Temperature 31): 3892,85755253156 and 4052,78803951145 and 3854,85757088369
- TSA melting curve raw signal ([2]; Temperature 31.5): 3868,35453137919 and 4026,78761104422 and 3830,51973110108
- TSA melting curve raw signal ([2]; Temperature 32): 3846,14582452398 and 4002,89304325356 and 3808,96381740298
- TSA melting curve raw signal ([2]; Temperature 32.5): 3827,35535230328 and 3981,88234223881 and 3791,26035282333
- TSA melting curve raw signal ([2]; Temperature 33): 3812,58320085949 and 3964,3028642829 and 3777,54515038218
- TSA melting curve raw signal ([2]; Temperature 33.5): 3801,69756150235 and 3949,2862317403 and 3767,92816787175
- TSA melting curve raw signal ([2]; Temperature 34): 3794,14835836044 and 3937,14669832695 and 3761,78012801461
- TSA melting curve raw signal ([2]; Temperature 34.5): 3789,41768425867 and 3927,49825494442 and 3758,75347546959
- TSA melting curve raw signal ([2]; Temperature 35): 3787,20107392869 and 3920,20996880984 and 3758,62073564665
- TSA melting curve raw signal ([2]; Temperature 35.5): 3787,42445071158 and 3914,62343444524 and 3761,24267883563
- TSA melting curve raw signal ([2]; Temperature 36): 3789,87806432584 and 3911,1710367624 and 3766,28559252083
- TSA melting curve raw signal ([2]; Temperature 36.5): 3794,85229304264 and 3909,49204056619 and 3773,84282790235
- TSA melting curve raw signal ([2]; Temperature 37): 3802,25424487634 and 3909,25385384206 and 3783,72084315967
- TSA melting curve raw signal ([2]; Temperature 37.5): 3812,04395610452 and 3910,368484837 and 3795,67572672777
- TSA melting curve raw signal ([2]; Temperature 38): 3823,44040340727 and 3913,02621291175 and 3809,89581343172
- TSA melting curve raw signal ([2]; Temperature 38.5): 3837,03387753428 and 3917,20362777738 and 3826,4956570889
- TSA melting curve raw signal ([2]; Temperature 39): 3852,32039847376 and 3922,75702566821 and 3845,46925064995
- TSA melting curve raw signal ([2]; Temperature 39.5): 3869,53236426586 and 3930,26334549594 and 3867,32940969988
- TSA melting curve raw signal ([2]; Temperature 40): 3888,57436192082 and 3939,63549689652 and 3891,99828571263
- TSA melting curve raw signal ([2]; Temperature 40.5): 3909,9422248531 and 3951,08452102982 and 3919,26474950283
- TSA melting curve raw signal ([2]; Temperature 41): 3933,37089433234 and 3964,6560667334 and 3949,14976176316
- TSA melting curve raw signal ([2]; Temperature 41.5): 3959,61189650686 and 3980,53295877896 and 3981,80921424824
